Values joined by “and” are separate entries in the source; they are usually repeats but may differ in a detail not shown here. Identical values can stand only once.
Experiments:
Rattus norvegicus [1] = experiment: Maximal increase in rotations at a dose of 1 mg/kg, ip in 6-hydroxydopamine-lesioned rat model of hemi-parkinsonism.; assay type: functional; settings: route intraperitoneal
Rattus norvegicus [2] = experiment: Maximal increase in rotations at a dose of 1 ug/kg, ip in 6-hydroxydopamine-lesioned rat model of hemi-parkinsonism.; assay type: functional
[3] = biological target: D(2) dopamine receptor (Bos taurus) (UniProt P20288); experiment: Percentage of Dopamine receptor D2 in the high affinity form(RH) for the agonist was determined in the presence of GPP(NH)p pretreated with the compound at 100 nM; assay type: functional
[4] = biological target: D(2) dopamine receptor (Bos taurus) (UniProt P20288); experiment: Percentage of Dopamine receptor D2 in the low affinity form(RL) for the agonist was determined in the presence of GPP(NH)p pretreated with the compound at 100 nM; assay type: functional
[5] = biological target: D(2) dopamine receptor (Bos taurus) (UniProt P20288); experiment: Percentage of Dopamine receptor D2 in the low affinity form(RL) for the agonist was determined in the absence of GPP(NH)p pretreated with the compound at 100 nM; assay type: functional
[6] = biological target: D(2) dopamine receptor (Bos taurus) (UniProt P20288); experiment: Inhibitor constant(Ki) for Dopamine receptor D2 calculated for high affinity(KH) component of [3H]spiperidol binding in the presence of GPP(NH)p pretreated with the compound at 100 nM
[7] = Ratio of RH to RL was determined in the absence of GPP(NH)p pretreated with the compound at 100 nM
[8] = Ratio of RH to RL was determined in the presence of GPP(NH)p pretreated with the compound at 100 nM
[9] = biological target: D(2) dopamine receptor (Bos taurus) (UniProt P20288); experiment: Inhibitor constant(Ki) for Dopamine receptor D2 calculated for high affinity(KH) component of [3H]spiperidol binding in the absence of GPP(NH)p pretreated with the compound at 100 nM
[10] = biological target: D(2) dopamine receptor (Bos taurus) (UniProt P20288); experiment: Inhibitor constant(Ki) for Dopamine receptor D2 calculated for […] component of [3H]-spiperidol binding in the absence of GPP(NH)p pretreated with the compound at 100 nM
Rattus norvegicus [11] = experiment: Maximal increase in rotations at a dose of 0.1 ug/kg, ip in 6-hydroxydopamine-lesioned rat model of hemi-parkinsonism.; assay type: functional
[12] = biological target: D(2) dopamine receptor (Bos taurus) (UniProt P20288); experiment: Percentage of Dopamine receptor D2 in the high affinity form(RH) for the agonist was determined in the absence of GPP(NH)p pretreated with the compound at 100 nM; assay type: functional
[13] = biological target: D(2) dopamine receptor (Bos taurus) (UniProt P20288); experiment: Inhibitor constant(Ki) for Dopamine receptor D2 calculated for low affinity(KL) component of [3H]spiperidol binding in the presence of GPP(NH)p pretreated with the compound at 100 nM
[14] = biological target: D(2) dopamine receptor (Bos taurus) (UniProt P20288); experiment: Inhibitor constant(Ki) for Dopamine receptor D2 calculated for low affinity(KL) component of [3H]spiperidol binding in the absence of GPP(NH)p pretreated with the compound at 100 nM
Rattus norvegicus [15] = experiment: Maximal increase in rotations at a dose of 10 ug/kg, ip in 6-hydroxydopamine-lesioned rat model of hemi-parkinsonism.; assay type: functional

Chain of D(2) dopamine receptor (Bos taurus) (P20288 whole entry): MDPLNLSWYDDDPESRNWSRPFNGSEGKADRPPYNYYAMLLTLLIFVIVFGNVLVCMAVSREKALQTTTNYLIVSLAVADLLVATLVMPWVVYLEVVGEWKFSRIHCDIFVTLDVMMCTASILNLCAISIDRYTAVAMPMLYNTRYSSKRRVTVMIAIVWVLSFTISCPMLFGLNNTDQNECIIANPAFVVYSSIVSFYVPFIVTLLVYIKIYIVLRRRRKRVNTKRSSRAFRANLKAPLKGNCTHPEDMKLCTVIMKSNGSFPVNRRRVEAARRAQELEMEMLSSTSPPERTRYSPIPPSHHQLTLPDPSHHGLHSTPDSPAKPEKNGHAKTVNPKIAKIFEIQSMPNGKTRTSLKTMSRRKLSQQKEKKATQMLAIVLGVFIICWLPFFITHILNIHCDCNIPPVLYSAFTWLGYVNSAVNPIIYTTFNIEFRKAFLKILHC

| SMILES | RH [3] | RL [4] | RL [5] | KH [6] | Ratio [7] | Ratio [8] | KH [9] | RH [12] | KL [13] | KL [14] | further results |
| --- | --- | --- | --- | --- | --- | --- | --- | --- | --- | --- | --- |
| CC(C)CC(NC(=O)[C@@H]1CCCN1)C(=O)NCC(N)=O (single isomer, unassigned) |  |  |  |  |  |  |  |  |  |  | Increase (Rattus norvegicus [1]): 30% |
| CC(C)C[C@H](NC(=O)[C@@H]1CCCN1)C(=O)N1CCC[C@@H]1C(N)=O |  |  |  |  |  |  |  |  |  |  | Increase (Rattus norvegicus [2]): 26% |
| C[C@@H]1CCN(C(=O)[C@@H]2CCCN2)[C@@H]1C(=O)N1CCC[C@H]1C(N)=O | 54% | 46% | 48% | 0.087 nM | 1.08 | 1.17 | 0.052 nM and 52% |  |  |  | KL [6]: 106 nM; KL [10]: 98 nM |
| CC(C)C[C@H](NC(=O)[C@@H]1CCCN1)C(=O)N1CCCC1C(N)=O (single isomer, unassigned) |  |  |  |  |  |  |  |  |  |  | Increase (Rattus norvegicus [11]): 30% |
| NC(=O)[C@@H]1CCCN1C(=O)[C@@H]1CCCN1C(=O)[C@@H]1CCCN1 | 54% | 46% | 27% | 0.089 nM | 2.7 | 1.17 | 0.05 nM | 73% | 88 nM | 110 nM | Increase (Rattus norvegicus [15]): 47% |
| NC(=O)[C@H]1CCCN1C(=O)[C@@H]1CCCN1C(=O)[C@@H]1CCCN1 | 67% | 33% | 29% | 0.054 nM | 2.45 | 2.03 | 0.086 nM | 71% | 140 nM | 153 nM |  |

Source: ChEMBL document CHEMBL1131839, “Synthesis and dopamine receptor modulating activity of unsubstituted and substituted triproline analogues of L-prolyl-L-leucyl-glycinamide (PLG)” (1999)
